Measured values as given in US20070021397A1, “Neurocyte protective agent” (priority 2003, published 2007).

How the values were obtained:
[1] = test system: cultured rat septal area neurons; assay: Aβ(1-40) toxicity, LDH leakage from cultured septal area neurons; assay type: cell-based; conditions: siRNA 1 μmol/L added 24 h before and immediately before 15 μmol/L Aβ(1-40), 48 h; FIG. 12
Method: Septal area neurons were prepared from embryos (18-day-old embryos) of Wistar rats (Charles River Japan). The septal region (including septal area and basal forebrain) was cut out from embryonic brain and incubated in Ca^2+/Mg^2+-free Hanks' balanced salt solution containing 0.25% trypsin and 0.2 mg/ml DNase I at 37° C. for 15 minutes. […] Cells were plated on 96-well poly-D-lysine-coated culture plates at a concentration of 1.2×10^5 cells/well. The plated cells were cultured in a CO2 incubator (5% CO2, 37° C.). After one day, ⅔ of the medium was exchanged for the above-described DMEM containing 5% fetal calf serum. After three days, ⅔ of the medium was exchanged again for the above-described DMEM containing 5% fetal calf serum. After 6 days, the entire medium was exchanged for the above-described DMEM (this time, Gln is not contained) not containing serum.
As an indicator for cytotoxicity, LDH (lactate dehydrogenase) was measured. […] Forty-eight hours after the addition of Aβ(1-40), lactate dehydrogenase (LDH) activity in the medium was measured. At the same time, cells were solubilized with phosphate buffer (pH 7.4) containing 0.5% Triton X-100, followed by measurement of LDH in cells. […] The data were analyzed by analysis techniques of ANOVA and Welch's test.
LDH (lactate dehydrogenase) was measured as an indicator for cytotoxicity. […] The data were analyzed by ANOVA and Welch's test.

[2] = test system: rat primary culture cerebral cortex neurons; assay: OGD (oxygen glucose deprivation) test, LDH release; assay type: cell-based; conditions: added 12 h before OGD; 0.1, 1.0, 10 μM (galantamine 1.0, 10, 100 μM); FIG. 3
From the text: After culturing for 7 days or more, cells were subjected to OGD treatment. […] As an indicator for neurocyte protection effect, ratio of LDH release inhibition was used. […] Therefore, when cells are injured by OGD, LDH flows out from inside of the cells into extracellular solution. In this solution, LDH is present depending on the degree of injury of the cells (cell death). The amount of LDH present in the solution can be determined by adding pyruvic acid and NADH to the solution and measuring the decreasing ratio of NADH with an absorption spectrometer.
Subsequently, rat primary culture neurons were subjected to OGD treatment in the same manner as in the previous test.
Then, their effects on LDH release induced by OGD treatment were tested.

[3] = test system: rat primary culture neurons; assay: OGD test, microscopic observation of cell morphology; conditions: added before OGD treatment; FIG. 2

Molecule	protective effect against Aβ(1-40) toxicity (LDH) [1]	also measured
siRNA (ii): double-stranded siRNA of acetylcholinesterase, SEQ ID NO: 3 and SEQ ID NO: 4 (chain 1 GCUGCCUCAAGAAAGUAUCTT; chain 2 GAUACUUUCUUGAGGCAGCTT; chemistry not given here)	inhibit Aβ toxicity	
CCN(C)C(=O)Oc1cccc([C@H](C)N(C)C)c1 [Rivastigmine]		inhibition of LDH release (neurocyte protective effect) after OGD [2]: did not show any neurocyte protective effect
COc1cc2c(cc1OC)C(=O)C(CC1CCN(Cc3ccccc3)CC1)C2.Cl (stereo not shown) [Donepezil, 1-benzyl-4-[(5,6-dimethoxy-1-indanone)-2-yl]methylpiperidine]		protection of neurons by cell morphology [3]: neurons were protected by the addition of donepezil before OGD treatment
siRNA (i): double-stranded siRNA of acetylcholinesterase, SEQ ID NO: 1 and SEQ ID NO: 2 (chain 1 AAUGUCAGUGACUCUGUUUTT; chain 2 AAACAGAGUCACUGACAUUTT; chemistry not given here)	inhibit Aβ toxicity	
